Active and inactive are the calls of the source. The rule behind the calls is not given here.
Assays:
Type in all cases: functional, organism-based
[1] = tested on: Oryza sativa; assay: Induction of disease resistance in Oryza sativa Nipponbare (rice) assessed as increase in jasmonic acid level in press-injured leaves at 0.5 mM pretreated with water 24 hr prior to compound treatment measured after 6 hr by HPLC-MS-MS analysis relative to control
[2] = tested on: Oryza sativa; assay: Induction of disease resistance in Oryza sativa Nipponbare (rice) assessed as increase in jasmonic acid level in press-injured leaves at 0.5 mM after 1 to 2 hr by HPLC-MS-MS analysis relative to control
[3] = tested on: Oryza sativa; assay: Induction of disease resistance in Oryza sativa Nipponbare (rice) assessed as increase in momilactone level in uninjured leaves at 0.5 mM pretreated with water 24 hr prior to compound treatment measured after 8 to 10 hr by HPLC-MS-MS analysis relative to control
[4] = tested on: Oryza sativa; assay: Induction of disease resistance in Oryza sativa Nipponbare (rice) assessed as increase in sakuranetin level in uninjured leaves at 0.5 mM pretreated with water 24 hr prior to compound treatment measured after 8 to 10 hr by HPLC-MS-MS analysis relative to control
[5] = tested on: Oryza sativa; assay: Induction of disease resistance in Oryza sativa Nipponbare (rice) assessed as increase in momilactone level in press-injured leaves at 0.5 mM pretreated with water 24 hr prior to compound treatment measured after 8 to 10 hr by HPLC-MS-MS analysis relative to control
[6] = tested on: Oryza sativa; assay: Induction of disease resistance in Oryza sativa Nipponbare (rice) assessed as increase in sakuranetin level in press-injured leaves at 0.5 mM pretreated with water 24 hr prior to compound treatment measured after 8 to 10 hr by HPLC-MS-MS analysis relative to control
[7] = tested on: Oryza sativa; assay: Induction of disease resistance in Oryza sativa Nipponbare (rice) assessed as increase in momilactone level in press-injured leaves at 10 mM after 48 hr by HPLC-MS-MS analysis
[8] = tested on: Oryza sativa; assay: Induction of disease resistance in Oryza sativa Nipponbare (rice) assessed as increase in sakuranetin level in press-injured leaves at 10 mM after 48 hr by HPLC-MS-MS analysis
[9] = tested on: Oryza sativa; assay: Induction of disease resistance in Oryza sativa Nipponbare (rice) assessed as increase in sakuranetin level in press-injured leaves at 0.1% after 48 hr by HPLC-MS-MS analysis

CUPRIC CHLORIDE
Activity [1]: Active
Activity [2]: inactive
Activity [3]: inactive
Activity [4]: inactive
Activity [5]: Active
Activity [6]: Active

O=P(O)(O)CCCl
Activity [7]: inactive
Activity [8]: Active

C[S+](CC[C@H](N)C(=O)[O-])C[C@H]1O[C@@H](n2cnc3c(N)ncnc32)[C@H](O)[C@@H]1O (stereo not given in full)
Activity [9]: inactive

N[C@@H](Cc1ccccc1)C(=O)O
Activity [9]: inactive
